Results reported in paper PMC9785542, “Discovery of 1-Benzhydryl-Piperazine-Based HDAC Inhibitors with Anti-Breast Cancer Activity: Synthesis, Molecular Modeling, In Vitro and In Vivo Biological Evaluation” (Pharmaceutics, 2022).

Test system: intersegmental blood vessels (ISVs) of Tg(fli1:EGFP) zebrafish embryos
Test: Anti-angiogenic activity in Tg(fli1:EGFP) zebrafish embryos
Type: in vivo
Method: The inhibitory activity of 8b on angiogenesis was examined using embryos of the transgenic zebrafish Tg(fli1:EGFP) line with GFP-labeled endothelial cells, as previously described. Briefly, embryos at the 6–8 hpf stage were exposed to three non-toxic concentrations and incubated at 28 °C by 48 hpf. At 48 hpf, the treated embryos were anesthetized with 0.02% tricaine, imaged under a fluorescence microscope (Olympus BX51, Applied Imaging Corp., San Jose, CA, USA), and analyzed for the development of intersegmental blood vessels (ISVs). The experiment was performed three times using ten embryos per concentration. ISV lengths were measured using ImageJ program, and expressed as mean value with standard deviation. Inhibitory effect of the applied treatment was determined in relation to the control (DMSO-treated) group, arbitrarily set to 100%.

O=C(CCCCCCCN1CCN(C(c2ccccc2)c2ccccc2)CC1)NO [Compound 8b, 8-(4-(diphenylmethyl)-piperazin-1-yl)-N-hydroxyoctanamide]
embryos affected in terms of ISV growth (anti-angiogenic phenotype) (6.25 µM, 48 hpf): ~ 60%
toxic response in embryos at anti-angiogenic effective doses (8b 6.25-50 µM, Suten effective dose 1.56 µM): did not elicit any toxic response
ISV inhibition (25 and 50 µM, 48 hpf): majority of ISVs were inhibited
